Experimental data reported in patent US4652575A, “2-(ethylene-thio methyl furanyl)amino thiazole derivatives having acid secretion inhibiting activity” (Medosan Industrie Biochimiche Riunite S.p.A., priority 1984, dated 1987).
Like-named read-outs stand apart in the source and are kept apart here.

Columns and labels:
histamine H2 receptors = target: T1, histamine H2 receptors (Cavia porcellus, UniProt P47747); test: Antagonistic activity to the histamine H2 receptors "in vitro" on insulated atrium auricolas of Guinea pig heart; details: for inhibition at 10 µM / inhibition at 1 µM / inhibition at 0.1 µM: guinea pig, 0.5 h, read-out: Antagonizing activity to histamine H2 receptors; for inhibition at 10 µM: compound 1·10^-5 M/L; for inhibition at 1 µM: compound 1·10^-6 M/L; for inhibition at 0.1 µM: compound 1·10^-7 M/L; for antagonistic action to the histamine H2 receptors (in words): in vitro
T1 construct: tests on insulated atrium auricolas of Guinea pig heart; from tissue; host or cells: isolated guinea pig heart atrium
T1 sequence (P47747 whole entry): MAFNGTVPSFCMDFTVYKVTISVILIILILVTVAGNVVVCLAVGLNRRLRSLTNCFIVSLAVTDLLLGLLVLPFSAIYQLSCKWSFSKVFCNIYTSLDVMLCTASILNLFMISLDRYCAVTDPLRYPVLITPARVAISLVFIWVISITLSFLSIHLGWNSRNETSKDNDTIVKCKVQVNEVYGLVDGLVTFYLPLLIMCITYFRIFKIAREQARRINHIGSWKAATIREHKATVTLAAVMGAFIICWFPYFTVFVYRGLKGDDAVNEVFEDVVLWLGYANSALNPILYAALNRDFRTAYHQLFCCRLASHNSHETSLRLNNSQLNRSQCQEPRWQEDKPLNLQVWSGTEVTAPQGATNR
Experimental: (§1) The preparations were a solution of the substances in 2.5% citric acid for the "in vitro" test and 5% citric acid for the "in vivo" test respectively. Citric acid was diluted in normal physiologic saline at neutral pH.
This activity was evaluated "in vitro" by carrying out tests on insulated atrium auricolas of Guinea pig heart. […] Metering was carried out by placing the preparation into a vessel containing a Ringer-Locke solution wherein pure oxygen was bubbling, at a temperature of 37° C. A response of the organ "in vitro" was first established at cumulative histamine doses of 2.5.10^-7, 5.10^-7, 10^-6, 5.10^-6, 10^-5 M/L. After obtaining two constant lines with histamine at a time interval of one hour from one another, the substances under test were added to the bath and after a 30 minutes contact with the preparation, a new histamine response line in the presence of the substance under test was drawn. The activity was tested at various concentrations of the new compounds (10^-5, 10^-6, 10^-7 and in one case 10^-8 M/L).

in vivo = details: po; for LD50 at 360 h: mouse; for LD50: rat
From the text: The animals were kept under observation by checking mortality and possible pain signs for 15 days from start of test.

gastric secretion = test: Activity on gastric secretion "in vivo" (volume and total acidity of gastric juice after pylorus tieing, Shay); set-up: species or system male Wistar rats; details: for Total acidity gastric juice secretion / Volume gastric juice secretion / change in vivo at 20 mg/kg: 20 mg/kg oral; for change in vivo at 20 mg/kg / ED50: Rattus norvegicus, po; for ED50: per os, 1 hour before pilorus tieing, read-out: DE50 in rat calculated on total acidity (mEq/4 hours); for ability to reduce the gastric acid secretion (in words): volume and total acidity of gastric juice
Experimental: as §1
The ability of the compounds according to the present invention to inhibit the gastric secretion was studied "in vivo" both by evaluating the volume reduction of gastric juice, and by measuring the total acidity of same after administration of the substances under test according to the Takeda method (see the aforementioned literature).
To this end, tests have been made on male Wistar rats of an average weight of 200 g. The animals, 10 for each substance, were placed into individual cages provided with ground grating in order to avoid coprophagy, without food but with free access to water for 24 hours before test. […] Four hours later the animals were sacrificed and the gastric juice was collected, of which the volume expressed in ml and the total acidity expressed in mEq was measured. The gastric juice ([…] ) was titrated with 0.1N NaOH to pH 7 to determine the acid concentration. The total acidity was then calculated as the product of the total volume of gastric juice by the acid concentration.

[1] = 6 hours before pilorus tieing, read-out: Total acidity gastric juice secretion, Variation %
[2] = 6 hours before pilorus tieing, read-out: Volume gastric juice secretion, Variation %
[3] = 12 hours before pilorus tieing, read-out: Total acidity gastric juice secretion, Variation %
[4] = 12 hours before pilorus tieing, read-out: Volume gastric juice secretion, Variation %
[5] = 24 hours before pilorus tieing, read-out: Total acidity gastric juice secretion, Variation %
[6] = 24 hours before pilorus tieing, read-out: Volume gastric juice secretion, Variation %
[7] = 36 hours before pilorus tieing, read-out: Total acidity gastric juice secretion, Variation %
[8] = 36 hours before pilorus tieing, read-out: Volume gastric juice secretion, Variation %

SMILES	inhibition at 10 µM (histamine H2 receptors; histamine 1·10^-5 M/L) [%]	inhibition at 10 µM (histamine H2 receptors; histamine 1·10^-6 M/L) [%]	inhibition at 10 µM (histamine H2 receptors; histamine 2,5·10^-7 M/L) [%]	inhibition at 10 µM (histamine H2 receptors; histamine 5·10^-6 M/L) [%]	inhibition at 10 µM (histamine H2 receptors; histamine 5·10^-7 M/L) [%]	inhibition at 1 µM (histamine H2 receptors; histamine 1·10^-5 M/L) [%]	inhibition at 1 µM (histamine H2 receptors; histamine 1·10^-6 M/L) [%]	inhibition at 1 µM (histamine H2 receptors; histamine 2,5·10^-7 M/L) [%]	inhibition at 1 µM (histamine H2 receptors; histamine 5·10^-6 M/L) [%]	inhibition at 1 µM (histamine H2 receptors; histamine 5·10^-7 M/L) [%]	inhibition at 0.1 µM (histamine H2 receptors; histamine 1·10^-5 M/L) [%]	inhibition at 0.1 µM (histamine H2 receptors; histamine 1·10^-6 M/L) [%]	inhibition at 0.1 µM (histamine H2 receptors; histamine 2,5·10^-7 M/L) [%]	inhibition at 0.1 µM (histamine H2 receptors; histamine 5·10^-6 M/L) [%]	inhibition at 0.1 µM (histamine H2 receptors; histamine 5·10^-7 M/L) [%]	antagonistic action to the histamine H2 receptors (in words) (histamine H2 receptors)	LD50 at 360 h (in vivo) [mg/kg]	LD50 (in vivo) [mg/kg]	Total acidity gastric juice secretion (gastric secretion; 6 hours before pilorus tieing)	Volume gastric juice secretion (gastric secretion; 6 hours before pilorus tieing)	also measured
CN(C)Cc1ccc(CSCCNc2nc(-c3ccc(-c4ccccc4)cc3)cs2)o1 [Example No. 5, 2-(2-(((5-(dimethylamino)methyl-2-furanyl)methyl)thio)ethyl)amino-4-(4-biphenyl)-thiazole]	100	100	100	100	100	45	70	100	60	90	25	65	95	40	85	interesting ability	2300	3300	0,08 mEq/4 hours	3,7 ml/4 hours	Total acidity gastric juice secretion (gastric secretion; 12 hours before pilorus tieing): 0,08 mEq/4 hours; Volume gastric juice secretion (gastric secretion; 12 hours before pilorus tieing): 3,8 ml/4 hours; Total acidity gastric juice secretion (gastric secretion; 24 hours before pilorus tieing): 0,13 mEq/4 hours; Volume gastric juice secretion (gastric secretion; 24 hours before pilorus tieing): 4,9 ml/4 hours; Total acidity gastric juice secretion (gastric secretion; 36 hours before pilorus tieing): 0,13 mEq/4 hours; Volume gastric juice secretion (gastric secretion; 36 hours before pilorus tieing): 4,4 ml/4 hours; change in vivo at 20 mg/kg (gastric secretion; [1]): -53%; change in vivo at 20 mg/kg (gastric secretion; [2]): -30%; change in vivo at 20 mg/kg (gastric secretion; [3]): -47%; change in vivo at 20 mg/kg (gastric secretion; [4]): -25%; change in vivo at 20 mg/kg (gastric secretion; [5]): -23%; change in vivo at 20 mg/kg (gastric secretion; [6]): -13%; change in vivo at 20 mg/kg (gastric secretion; [7]): -19%; change in vivo at 20 mg/kg (gastric secretion; [8]): -21%; ED50 (gastric secretion): 1.6 mg/kg; ability to reduce the gastric acid secretion (in words) (gastric secretion): interesting ability
CN(C)Cc1ccc(CSCCNC(=S)NC(=O)c2ccccc2)o1 [Example No. 1, N-benzoyl-N'-(2-(((5-(dimethylamino)methyl-2-furanyl)methyl)-thio)ethyl)-thiourea]	100	100	100	100	100	50	80	100	60	90	20	65	90	35	85	interesting ability	750	1000	0,08 mEq/4 hours	4,1 ml/4 hours	Total acidity gastric juice secretion (gastric secretion; 12 hours before pilorus tieing): 0,09 mEq/4 hours; Volume gastric juice secretion (gastric secretion; 12 hours before pilorus tieing): 4,0 ml/4 hours; Total acidity gastric juice secretion (gastric secretion; 24 hours before pilorus tieing): 0,13 mEq/4 hours; Volume gastric juice secretion (gastric secretion; 24 hours before pilorus tieing): 5,0 ml/4 hours; Total acidity gastric juice secretion (gastric secretion; 36 hours before pilorus tieing): 0,14 mEq/4 hours; Volume gastric juice secretion (gastric secretion; 36 hours before pilorus tieing): 5,2 ml/4 hours; change in vivo at 20 mg/kg (gastric secretion; [1]): -53%; change in vivo at 20 mg/kg (gastric secretion; [2]): -23%; change in vivo at 20 mg/kg (gastric secretion; [3]): -40%; change in vivo at 20 mg/kg (gastric secretion; [4]): -21%; change in vivo at 20 mg/kg (gastric secretion; [5]): -23%; change in vivo at 20 mg/kg (gastric secretion; [6]): -11%; change in vivo at 20 mg/kg (gastric secretion; [7]): -12%; change in vivo at 20 mg/kg (gastric secretion; [8]): -7%; ED50 (gastric secretion): 3.4 mg/kg; ability to reduce the gastric acid secretion (in words) (gastric secretion): interesting ability
